Experiments:
HUH7 cells = experiment: Stable isotope (13C18-oleic acid) labeling of triglyceride synthesis with LC-MS detection in HUH7 cells; format: cell-based, human; settings: for levels of 13C18-triolein relative to those of the control: 10 μM compound, about 90 minutes with 13C18-oleic acid, % of control (FIG. 3)
Procedure: (§1) The 3T3-L1 mouse preadipocyte cells were maintained in Dulbecco's Modified Eagles Medium (DMEM) with 10% fetal bovine serum (FBS). Cells were seeded in 96-well plates. Two days post confluency, the medium was changed to induction medium with IBMX, insulin, and dexamethasone (Adipolysis kit, Cayman Chemical Company). Three days after induction, the medium was changed to insulin medium (Adipolysis kit, Cayman Chemical Company). Five days after induction, the medium was replaced with fresh insulin medium for 2 days. Human hepatoma cell line HUH7 was maintained in DMEM with 10% FBS, 4.5 g/L D-glucose. Rat hepatoma cell line FU5AH was maintained in Minimum Essential Medium Eagle (MEM) with 5% FBS. The hepatoma cells were plated in 96 well plates and used at 80% confluence. Human breast cancer cell line MCF7 cells were maintained in DMEM with 10% FBS, 4.5 g/L D-glucose. Human monocytic leukemia cell line THP-1 was maintained in RPMI medium with 10% FBS and used at 5×10^5 cells/ml.
The HUH7 cells or the differentiated 3T3-L1 cells were incubated with DMEM with 10% charcoal-stripped FBS (Gibco) in 5% CO2 at 37° C. for overnight. The FU5AH cells were incubated with MEM with 5% charcoal-stripped FBS in 5% CO2 at 37° C. for overnight. About 100 μl of 300 μM ^13C18-oleic acid (SIGMA) precomplexed with 0.5% fatty acid free BSA (SIGMA) were added to the cell suspension in 5% CO2 at 37° C. for 0, 30, 60, 120 and 180 minutes. Then the cells were washed once with phosphate buffered saline and extracted with 100 μl of isopropyl alcohol. After incubating at room temperature for 10 minutes, the extraction was transferred to a glass vial and detected for labeled lipid molecules using the LC-MS system.
The LC-MS detection was conducted with Agilent 1100 Liquid Chromatographic system (Agilent Technologies, Palo Alto, Calif.) interfaced with a Micromass triple-quadrupole Quattro Micro mass spectrophotometer (Waters, Milford, Mass.) through a Z-spray electrospray ion source (ESI). Separation of the metabolites was performed on an Eclipse XDB-C8 column (2.1×50 mm, particle size=3.5 μm). Mobile Phase A, 50 mM ammonium formate in isopropanol-water (3:7), and mobile phase B, 10 mM ammonium formate in isopropanol-water (9:1) were used for a gradient elution as following: 20-100% Mobile Phase B for 1 min, hold 100% Mobile Phase B for 4 min, return to 20% Mobile Phase B for 0.1 min, then post run time of 4.5 min. The flow rate was 0.5 ml/min. […]
(§2) For evaluating compounds which modulate activity of DGAT1 or DGAT2, HUH7 or 3T3-L1 cells were preincubated with about 0, 0.03, 0.1, 0.3, 1, 3, or 10 μM Compounds 1 or 2 for about 10 minutes at 37° C. in 100 μl serum free medium with 0.05% DMSO. […] After incubation at 37° C. for about 90 minutes, cells were extracted and detected as described in Example 2.

[1] = tested on: differentiated 3T3-L1 cells; experiment: Stable isotope (13C18-oleic acid) labeling of triglyceride synthesis with LC-MS detection in differentiated 3T3-L1 cells; format: cell-based, mouse; settings: differentiated 3T3-L1 cell line
Procedure: as §1, with “The hepatoma cells were plated in 96 well plates and used at 80% confluence. Human breast cancer cell line MCF7 cells were maintained in DMEM with 10% FBS, 4.5 g/L D-glucose. Human monocytic leukemia cell line THP-1 was maintained in RPMI medium with 10% FBS and used at 5×10^5 cells/ml.” left out
The HUH7 cells or the differentiated 3T3-L1 cells were incubated with DMEM with 10% charcoal-stripped FBS (Gibco) in 5% CO2 at 37° C. for overnight. […] After incubating at room temperature for 10 minutes, the extraction was transferred to a glass vial and detected for labeled lipid molecules using the LC-MS system. […]
as §2

MCF7 cells = experiment: Stable isotope (13C18-oleic acid) labeling of triglyceride synthesis with LC-MS detection in MCF7 cells; format: cell-based, human; settings: compound 0.1-10 μM (concentration of the result not stated), about 3 hours with 13C18-oleic acid, % of control (FIG. 6)
Procedure: as §1
The LC-MS detection was conducted with Agilent 1100 Liquid Chromatographic system (Agilent Technologies, Palo Alto, Calif.) interfaced with a Micromass triple-quadrupole Quattro Micro mass spectrophotometer (Waters, Milford, Mass.) through a Z-spray electrospray ion source (ESI). […]
Next, the effects of Compound 2 in MCF7 cells were evaluated. […]

## COc1ccc(CC(=O)Nc2ccc(N3CCN(C(=O)Nc4c(Cl)cc(CN5CCCC5)cc4Cl)CC3)cc2)cc1 [Compound 1, N-[2,6-Dichloro-4-(pyrrolidin-1-ylmethyl)phenyl]-4-(4-{[(4-methoxyphenyl)acetyl]amino}phenyl)piperazine-1-carboxamide]
HUH7 cells; HUH7 cell line
  levels of 13C18-triolein relative to those of the control: about 30%
HUH7 cells; HUH7 cell line, result in words
  levels of the newly synthesized 13C18-triolein in the presence of compound: reduced levels
HUH7 cells; HUH7 cells incubated with compound (FIG. 5), result in words
  13C18-oleoyl-diglyceride level: transient increase
[1]; about 10 μM compound, about 90 minutes with 13C18-oleic acid, % of control (FIG. 4)
  levels of 13C18-triolein relative to those of the control: about 33%
[1]; result in words
  levels of the newly synthesized 13C18-triolein in the presence of compound: reduced levels

## COC(=O)c1[nH]c(=S)n(C(c2ccc(Cl)c(Cl)c2)C2CCCCC2)c1C(=O)OC (stereo not shown) [Compound 2, dimethyl 1-[cyclohexyl(3,4-dichlorophenyl)methyl]-2-thioxo-2,3-dihydro-1H-imidazole-4,5-dicarboxylate]
HUH7 cells; HUH7 cell line
  levels of 13C18-triolein relative to those of the control: about 75%
MCF7 cells
  levels of 13C18-triolein relative to those of the control: about 80%

Reference: patent US9012159B2, “Cell based screening assays for the triglyceride synthesis pathway” (Janssen Research & Development, LLC, priority 2009, dated 2015)
